Columns and labels:
[1] = target: T1, NR2B surface expression in hNR1/PSD95/NR2B expressing HEK cells (Homo sapiens, UniProt Q13224); assay: β-lactamase assay, restoration of NR2B surface expression after purified ANRE patient serum IgG; format: cell-based; conditions: 45 min purified patient serum IgG 1:50, then 15 min compound at 10 fM, 1 pM, 100 pM, 10 nM; FIG. 1 / FIG. 3
T1 construct: expressed in transfected cells; transient β-lactamase-hGluN2B
Description: (§1) Un-transfected (Untfx) cells were used as a negative control for surface β-lactamase activity.
(§2) hNR1/PSD95/NR2B-expressing HEK cells tagged with a β-lactamase enzyme at the N-terminus of NR2B are incubated with a 1:50 dilution of purified patient serum IgG for 45 min. The cells are washed with buffer to remove antibodies and then incubated for 15 min in the presence or absence of each of compounds A, B, or C at concentrations of 10 fM, 1 pM, 100 pM and 10 nM respectively. After said time, the membrane impermeable substrate nitrocefin and ±each of compounds A, B, and C are added. The NR2B N-terminal β-lactamase cleaves nitrocefin, resulting in a change of absorbance to 486 nm. The absorbance at 486 nm is measured every minute for 30 min.
Slopes of optical density are graphed as fold change over the vehicle. N=8; Statistics were determined by one-way ANOVA compared to antibody only (Ab). * p≤0.05, ** p≤0.01, *** p≤0.001, **** p≤0.0001 (FIG. 1).
(§3) Un-transfected (Untfx) cells were used as a negative control for surface β-lactamase activity. Human IgG (Sigma-Aldrich) at a concentration of 0.5 mg/ml was used as a negative control for non-specific receptor internalization.
hNR1/PSD95/NR2B expressing HEK cells tagged with a β-lactamase enzyme at the N-terminus of NR2B are incubated with purified patient serum IgG (1:50 dilution) for 45 min. The cells are washed to remove antibodies and then incubated for 15 min in the presence or absence of each of compounds A, B, C, D, E, F, G, and H at concentrations of 10 fM, 1 pM, 100 pM and 10 nM respectively. After said time, nitrocefin in buffer and ±each of compounds A-H are added and the absorbance at 486 nm is measured every minute for 30 min.
Slopes of optical density are graphed as fold change over the vehicle. N=8-12; Statistics were determined by one-way ANOVA compared to antibody only (Ab). * p≤0.05, ** p≤0.01, *** p≤0.001, **** p≤0.0001 (FIG. 3).
(§4) HEK293 cells stably expressing human GluN1 and PSD-95 were transiently transfected with hGluN2B tagged at the N-terminus with the β-lactamase enzyme using X-tremeGENE9 transfection reagent (Sigma-Aldrich). Transfected cultures were maintained in media containing ketamine (0.18 mg/ml) to minimize excitotoxicity. Twenty-four hours after transfection, cells were re-plated into poly-d-lysine coated 96-well plates at a concentration of 30,000 cells/well. The following day, cells were washed with buffer (HBSS, 10 mM HEPES, […]) and then incubated with a 1:50 dilution of purified patient IgG for 45 min at 37° C. The cells were washed once with buffer and then incubated for 15 min at 37° C. with buffer ±each of compound A, B and C. Nitrocefin in buffer (100 mM final; Cayman Chemical) ±each of compound A, B and C was added to each well and absorbance at 486 nm was measured every minute for 30 min at 37° C. in a plate reader. Un-transfected (Untfx) cells were used as a negative control for surface β-lactamase activity. Human IgG (Sigma-Aldrich) at a concentration of 0.5 mg/ml was used as a negative control for non-specific receptor internalization. Slopes of optical density are graphed as fold change over vehicle, mean ±SEM (n=8-12). Statistics were determined by one-way ANOVA compared to antibody only (Ab).

[2] = target: T1, NR2B surface expression in hNR1/PSD95/NR2B expressing HEK cells; assay: as above; format: cell-based; conditions: varying concentrations, FIG. 6A-6C
[3] = target: T1, NR2B surface expression in hNR1/PSD95/NR2B expressing HEK cells; assay: β-lactamase assay, NR2B surface expression, compound alone (absence of Ab), wild-type; format: cell-based; conditions: for surface NR2B expression in wild-type NR2B receptors relative to untreated vehicle controls: no antibody, varying concentrations, FIG. 6A-6C
Description: as §1, §2, §3, §4

[4] = system: Schaffer collateral-CA1 synapses in hippocampal slices; assay: Hippocampal slice LTP (fEPSP slope) with focal NR1 antibody application; format: cell-based, rat; conditions: 500 nM bath-applied, FIG. 5B
From the text: Two extracellular recording patch pipettes were placed at equal distances (˜500 μm) on either side of a single bipolar stainless steel stimulating electrode (Frederick Haer Inc.). A single test stimulus was applied each 30 seconds, to evoke field excitatory postsynaptic potentials (fEPSPs) recorded simultaneously at the Control and Antibody (Ab) recording sites. […]
LTP was induced by the stimulation of Schaffer collateral axons with high frequency theta burst stimulus trains. The fEPSP slope was measured before and after the induction of LTP in hippocampal slices treated with control, control +NR1Ab, Compound A, or Compound A +NR1Ab.
The experimental protocol to test the effects of focal application of NR1 antibodies on synaptic transmission and long-term potentiation (LTP) of synaptic strength at Schaffer collateral-CA1 synapses in hippocampal slices in vitro is illustrated in FIG. 5A below. […] A single test stimulus was applied each 30 seconds, to evoke field excitatory postsynaptic potentials (fEPSPs) recorded simultaneously at the Control and Antibody (Ab) recording sites. […] Statistics were determined by Student's t-test for unpaired data.

[5] = target: T1, NR2B surface expression in hNR1/PSD95/NR2B expressing HEK cells; assay: β-lactamase assay, restoration of NR2B surface expression after ANRE patient CSF; format: cell-based; conditions: after CSF (1:10 dilution) from ANRE patients N1, N2, N3; FIG. 2
Description: In this example hNR1/PSD95/NR2B expressing HEK cells tagged with a β-lactamase enzyme at the N-terminus of NR2B are incubated with CSF (1:10 dilution) from each of three individual ANRE patients (N1, N2, and N3).
as §4, with “The cells were washed once with buffer and then incubated for 15 min at 37° C. with buffer ±each of compound A, B and C. Nitrocefin in buffer (100 mM final; Cayman Chemical) ±each of compound A, B and C was added to each well and absorbance at 486 nm was measured every minute for 30 min at 37° C. in a plate reader.” left out

[6] = target: T2, NR2B:R393A mutant receptors (Homo sapiens, UniProt Q13224, R393A); assay: β-lactamase assay, NMDAR 2B trafficking in mutant R393A receptors; format: cell-based; conditions: FIG. 6A-6C; for ability to restore cell surface NR2B expression in NR2B:R393A mutant following ANRE patient serum IgG: after exposure to ANRE patient serum IgG
T2 construct: expressed in transfected cells; transient β-lactamase-hGluN2B R393A
Description: as §3, §4

T1 sequence (Q13224 27-1484, other chains not shown): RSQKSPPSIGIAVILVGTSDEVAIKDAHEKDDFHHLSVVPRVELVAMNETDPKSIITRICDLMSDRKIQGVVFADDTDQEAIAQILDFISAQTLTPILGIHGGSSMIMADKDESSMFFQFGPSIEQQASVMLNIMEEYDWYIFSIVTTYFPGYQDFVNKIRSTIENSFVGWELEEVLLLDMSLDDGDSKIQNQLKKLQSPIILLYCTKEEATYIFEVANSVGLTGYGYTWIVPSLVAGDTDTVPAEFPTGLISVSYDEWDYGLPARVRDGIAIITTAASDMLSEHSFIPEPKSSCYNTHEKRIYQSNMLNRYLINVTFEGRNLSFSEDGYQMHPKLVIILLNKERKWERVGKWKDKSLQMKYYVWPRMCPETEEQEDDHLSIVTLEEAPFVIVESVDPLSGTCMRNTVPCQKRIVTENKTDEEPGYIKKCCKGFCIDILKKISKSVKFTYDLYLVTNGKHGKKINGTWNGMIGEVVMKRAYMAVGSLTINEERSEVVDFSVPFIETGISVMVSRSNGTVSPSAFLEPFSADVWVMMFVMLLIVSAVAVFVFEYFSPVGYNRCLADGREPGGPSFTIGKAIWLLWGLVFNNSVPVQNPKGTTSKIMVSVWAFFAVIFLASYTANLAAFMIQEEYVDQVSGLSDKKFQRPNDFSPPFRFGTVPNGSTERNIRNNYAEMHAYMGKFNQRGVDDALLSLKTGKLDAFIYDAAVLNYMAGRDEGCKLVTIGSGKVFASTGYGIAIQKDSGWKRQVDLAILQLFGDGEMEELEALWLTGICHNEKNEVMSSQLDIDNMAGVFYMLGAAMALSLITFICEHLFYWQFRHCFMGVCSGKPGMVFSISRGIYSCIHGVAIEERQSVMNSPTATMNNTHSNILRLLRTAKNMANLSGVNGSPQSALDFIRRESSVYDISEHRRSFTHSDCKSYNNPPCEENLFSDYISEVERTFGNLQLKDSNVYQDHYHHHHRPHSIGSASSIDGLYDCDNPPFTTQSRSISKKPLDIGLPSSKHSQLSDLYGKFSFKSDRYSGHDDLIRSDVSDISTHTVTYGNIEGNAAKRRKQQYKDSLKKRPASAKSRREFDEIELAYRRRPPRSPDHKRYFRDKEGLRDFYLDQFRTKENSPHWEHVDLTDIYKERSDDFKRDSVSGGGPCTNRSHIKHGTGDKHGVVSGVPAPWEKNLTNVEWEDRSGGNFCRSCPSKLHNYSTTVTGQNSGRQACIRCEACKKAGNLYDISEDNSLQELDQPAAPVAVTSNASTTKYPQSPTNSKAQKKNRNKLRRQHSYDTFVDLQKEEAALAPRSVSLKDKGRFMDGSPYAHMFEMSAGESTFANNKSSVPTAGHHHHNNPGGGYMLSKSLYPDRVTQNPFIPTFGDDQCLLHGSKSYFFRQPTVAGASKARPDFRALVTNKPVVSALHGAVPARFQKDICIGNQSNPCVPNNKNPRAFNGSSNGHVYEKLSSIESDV
T2 sequence (Q13224 27-1484 R393A, other chains not shown): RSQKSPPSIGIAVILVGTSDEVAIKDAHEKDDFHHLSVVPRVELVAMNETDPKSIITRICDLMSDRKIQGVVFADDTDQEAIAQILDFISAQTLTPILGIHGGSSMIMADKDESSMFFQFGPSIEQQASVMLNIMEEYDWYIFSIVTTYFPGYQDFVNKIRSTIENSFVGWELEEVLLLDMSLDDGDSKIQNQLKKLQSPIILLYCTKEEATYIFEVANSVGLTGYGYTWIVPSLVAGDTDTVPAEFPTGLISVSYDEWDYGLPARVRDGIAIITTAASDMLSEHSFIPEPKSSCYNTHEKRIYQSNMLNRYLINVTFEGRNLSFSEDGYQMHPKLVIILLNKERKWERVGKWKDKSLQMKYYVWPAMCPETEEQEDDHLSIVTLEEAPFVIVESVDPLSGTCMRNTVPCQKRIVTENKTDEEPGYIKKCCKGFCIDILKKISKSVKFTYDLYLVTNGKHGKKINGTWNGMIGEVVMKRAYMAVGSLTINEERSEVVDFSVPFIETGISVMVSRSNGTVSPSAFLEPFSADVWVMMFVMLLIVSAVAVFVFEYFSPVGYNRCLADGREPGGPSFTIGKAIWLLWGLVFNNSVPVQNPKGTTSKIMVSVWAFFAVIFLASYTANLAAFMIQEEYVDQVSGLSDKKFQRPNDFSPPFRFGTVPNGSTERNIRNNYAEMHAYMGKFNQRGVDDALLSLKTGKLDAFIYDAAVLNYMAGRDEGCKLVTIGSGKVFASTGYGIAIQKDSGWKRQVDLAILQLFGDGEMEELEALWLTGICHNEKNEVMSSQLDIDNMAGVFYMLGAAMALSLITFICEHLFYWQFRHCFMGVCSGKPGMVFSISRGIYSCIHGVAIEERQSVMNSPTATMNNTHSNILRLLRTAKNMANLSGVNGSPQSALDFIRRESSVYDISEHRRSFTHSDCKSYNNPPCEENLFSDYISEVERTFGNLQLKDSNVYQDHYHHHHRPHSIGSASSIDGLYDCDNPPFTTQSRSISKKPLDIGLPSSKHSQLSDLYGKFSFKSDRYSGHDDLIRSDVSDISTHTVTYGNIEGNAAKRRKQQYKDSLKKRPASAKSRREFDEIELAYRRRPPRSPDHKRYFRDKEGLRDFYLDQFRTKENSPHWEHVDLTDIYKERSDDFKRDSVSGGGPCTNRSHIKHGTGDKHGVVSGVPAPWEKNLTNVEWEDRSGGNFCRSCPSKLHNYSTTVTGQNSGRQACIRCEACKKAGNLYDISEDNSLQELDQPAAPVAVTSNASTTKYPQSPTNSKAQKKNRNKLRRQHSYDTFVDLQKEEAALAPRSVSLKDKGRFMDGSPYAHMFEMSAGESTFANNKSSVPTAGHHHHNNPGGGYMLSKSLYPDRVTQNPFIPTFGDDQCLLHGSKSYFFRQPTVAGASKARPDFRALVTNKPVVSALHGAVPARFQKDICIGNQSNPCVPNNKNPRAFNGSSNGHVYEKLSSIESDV

| increase in cell surface NR2B expression ([3]; 1 pM, in the absence of Ab, positive control, wild-type) [%] | surface NR2B expression in wild-type NR2B receptors relative to untreated vehicle controls [3] | ability to restore cell surface NR2B expression in NR2B:R393A mutant [6] | ability to restore cell surface NR2B expression in NR2B:R393A mutant following ANRE patient serum IgG [6] | SMILES | restoration of NR2B surface expression to "No Ab" control level [1] | restoration of NR2B surface expression to "No Ab" control level, wild-type NR2B (Example 6) [2] | rescue of Schaffer collateral-CA1 LTP from acute NMDAR1 antibody effects ([4]; NR1 antibody 1:20 dilution) | magnitude of LTP relative to control ([4]; after high frequency stimulation, no antibody) | restoration of cell surface NR2B expression to vehicle levels [5] |
| --- | --- | --- | --- | --- | --- | --- | --- | --- | --- |
| ~20 | increase surface NR2B expression | abolishes the ability | abolishes the ability | CC(C)C(=O)N1CCC[C@]12CN([C@H](C(N)=O)[C@@H](C)O)C2=O [Compound A] | restore NR2B surface expression to levels observed in the “No Ab” control | restore NR2B surface expression to levels observed in the “No Ab” control | rescues Schaffer collateral-CA1 LTP | increased the magnitude of LTP | restored cell surface NR2B expression to vehicle levels |
| – | – | – | – | CC(C)CN1CCC[C@@]12CN([C@H](C(N)=O)[C@@H](C)O)C2=O [F] | failed to restore NR2B surface expression | – | – | – | – |
| – | – | – | – | CC(C)CN1[C@@]2(CC[C@@]13CNC3=O)CNC2=O [G] | failed to restore NR2B surface expression | – | – | – | – |
| – | increase surface NR2B expression | abolishes the ability | abolishes the ability | COc1ccc(CN2C[C@@]3(CCNC(=O)C3)C2=O)cc1 [C] | restore NR2B surface expression to levels observed in the “No Ab” control | restore NR2B surface expression to levels observed in the “No Ab” control | – | – | restored cell surface NR2B expression to vehicle levels |
| – | – | – | – | COc1ccc(CN2C[C@]3(CCNC(=O)C3)C2=O)cc1 [Compound D] | failed to restore NR2B surface expression | – | – | – | – |
| – | – | – | – | CC(C)CN1CCC[C@]12CN([C@H](C(N)=O)[C@@H](C)O)C2=O [E] | failed to restore NR2B surface expression | – | – | – | – |
| – | – | – | – | CC(C)CN1[C@]2(CC[C@]13CNC3=O)CNC2=O [H] | failed to restore NR2B surface expression | – | – | – | – |
| – | increase surface NR2B expression | abolishes the ability | abolishes the ability | CC(C)C(=O)N1CCC[C@@]12CN([C@H](C(N)=O)[C@@H](C)O)C2=O [B] | restore NR2B surface expression to levels observed in the “No Ab” control | restore NR2B surface expression to levels observed in the “No Ab” control | – | – | restored cell surface NR2B expression to vehicle levels |

Source: patent publication US20220273629A1, “METHODS OF TREATING DISORDERS ASSOCIATED WITH ELEVATED LEVELS OF ANTIBODIES THAT INTERACT WITH THE NMDA RECEPTOR” (Aptinyx Inc., priority 2019, published 2022)
